Data: the NIST ThermoML archive (doi:10.1021/je050540h)

Experiment: xn = mol fraction of the nth substance listed
Details: Liquid

CCC(C)O (centres undefined) [butan-2-ol] + C1CCCC1
101 kPa, x2 = 0
Details | mass density [kg/m3] | speed of sound [m/s] | viscosity [mPa·s]
293.15 K | 806.84 | 1230 | 3.623
298.15 K | 802.72 | 1212 | 2.995
303.15 K | 798.51 | 1194 | 2.493

CCC(C)O (centres undefined) [butan-2-ol] + C1CCCCC1
101 kPa
Details | mass density, 293.15 K [kg/m3] | mass density, 298.15 K [kg/m3] | mass density, 303.15 K [kg/m3] | speed of sound, 293.15 K [m/s] | speed of sound, 298.15 K [m/s] | speed of sound, 303.15 K [m/s] | viscosity, 293.15 K [mPa·s] | viscosity, 298.15 K [mPa·s] | viscosity, 303.15 K [mPa·s]
x2 = 0 | 806.84 | 802.72 | 798.51 | 1230 | 1212 | 1194 | 3.623 | 2.995 | 2.493
x2 = 0.0494 | 804.24 | 800.04 | 795.77 | 1228 | 1210 | 1191 | 3.231 | 2.687 | 2.251
x2 = 0.1003 | 801.95 | 797.69 | 793.34 | 1226 | 1207 | 1188 | 2.915 | 2.444 | 2.066
x2 = 0.1969 | 797.77 | 793.37 | 788.88 | 1223 | 1204 | 1184 | 2.227 | 1.891 | 1.623
x2 = 0.3052 | 793.48 | 788.95 | 784.34 | 1222 | 1201 | 1181 | 1.726 | 1.489 | 1.294
x2 = 0.4044 | 789.86 | 785.24 | 780.54 | 1222 | 1201 | 1179 | 1.48 | 1.299 | 1.142
x2 = 0.5004 | 786.73 | 782.04 | 777.29 | 1224 | 1202 | 1180 | 1.315 | 1.166 | 1.042
x2 = 0.6016 | 783.91 | 779.18 | 774.41 | 1228 | 1205 | 1183 | 1.16 | 1.042 | 0.942
x2 = 0.7145 | 781.42 | 776.68 | 772.02 | 1236 | 1213 | 1189 | 1.066 | 0.968 | 0.888
x2 = 0.8067 | 779.85 | 775.08 | 770.26 | 1245 | 1222 | 1198 | 0.98 | 0.892 | 0.817
x2 = 0.9046 | 778.86 | 774.06 | 769.22 | 1259 | 1235 | 1211 | 0.962 | 0.879 | 0.806
x2 = 0.9523 | 778.43 | 773.65 | 768.82 | 1267 | 1242 | 1218 | 0.993 | 0.908 | 0.833

C1CCCCC1 [cyclohexane] + CC(C)O
101 kPa
Details | mass density, 293.15 K [kg/m3] | mass density, 298.15 K [kg/m3] | mass density, 303.15 K [kg/m3] | speed of sound, 293.15 K [m/s] | speed of sound, 298.15 K [m/s] | speed of sound, 303.15 K [m/s] | viscosity, 293.15 K [mPa·s] | viscosity, 298.15 K [mPa·s] | viscosity, 303.15 K [mPa·s]
x1 = 0.0484 | 783.76 | 779.5 | 775.15 | 1160 | 1141 | 1123 | 2.184 | 1.883 | 1.633
x1 = 0.097 | 782.63 | 778.29 | 773.87 | 1163 | 1145 | 1126 | 1.988 | 1.722 | 1.504
x1 = 0.2006 | 780.51 | 776.05 | 771.5 | 1171 | 1152 | 1132 | 1.651 | 1.444 | 1.267
x1 = 0.3002 | 778.87 | 774.29 | 769.62 | 1180 | 1159 | 1139 | 1.427 | 1.26 | 1.112
x1 = 0.3977 | 777.63 | 772.95 | 768.19 | 1189 | 1167 | 1146 | 1.264 | 1.119 | 0.996
x1 = 0.507 | 776.69 | 771.92 | 767.09 | 1200 | 1178 | 1155 | 1.128 | 1.008 | 0.908
x1 = 0.6046 | 776.15 | 771.34 | 766.47 | 1211 | 1188 | 1165 | 1.025 | 0.926 | 0.838
x1 = 0.7058 | 775.92 | 771.11 | 766.23 | 1223 | 1200 | 1176 | 0.969 | 0.878 | 0.798
x1 = 0.823 | 776.23 | 771.42 | 766.56 | 1240 | 1216 | 1192 | 0.944 | 0.856 | 0.786
x1 = 0.9016 | 776.88 | 772.09 | 767.24 | 1254 | 1230 | 1206 | 0.95 | 0.87 | 0.801
x1 = 0.9521 | 777.52 | 772.74 | 767.92 | 1265 | 1240 | 1216 | 0.962 | 0.874 | 0.802
x1 = 1 | 778.62 | 773.92 | 769.19 | 1279 | 1254 | 1230 | 0.968 | 0.887 | 0.816

C1CCCCC1 [cyclohexane] + CCC(C)O
101 kPa, x1 = 1
Details | mass density [kg/m3] | speed of sound [m/s] | viscosity [mPa·s]
293.15 K | 778.62 | 1279 | 0.968
298.15 K | 773.92 | 1254 | 0.887
303.15 K | 769.19 | 1230 | 0.816

C1CCCCC1 [cyclohexane] + CCCC(C)O
x1 = 1
Details | mass density, 293.15 K [kg/m3] | mass density, 298.15 K [kg/m3] | mass density, 303.15 K [kg/m3] | speed of sound, 293.15 K [m/s] | speed of sound, 298.15 K [m/s] | speed of sound, 303.15 K [m/s] | viscosity, 293.15 K [mPa·s] | viscosity, 298.15 K [mPa·s] | viscosity, 303.15 K [mPa·s]
7 kPa | – | – | – | 1279 | 1254 | 1230 | – | – | –
101 kPa | 778.62 | 773.92 | 769.19 | – | – | – | 0.968 | 0.887 | 0.816

C1CCCC1 [cyclopentane] + CC(C)O
101 kPa
Details | mass density, 293.15 K [kg/m3] | mass density, 298.15 K [kg/m3] | mass density, 303.15 K [kg/m3] | speed of sound, 293.15 K [m/s] | speed of sound, 298.15 K [m/s] | speed of sound, 303.15 K [m/s] | viscosity, 293.15 K [mPa·s] | viscosity, 298.15 K [mPa·s] | viscosity, 303.15 K [mPa·s]
x1 = 0.0486 | 782.53 | 778.24 | 773.87 | 1156 | 1138 | 1120 | 2.105 | 1.823 | 1.587
x1 = 0.091 | 779.96 | 775.6 | 771.15 | 1155 | 1136 | 1118 | 1.874 | 1.627 | 1.421
x1 = 0.2019 | 774.33 | 769.77 | 765.12 | 1156 | 1136 | 1116 | 1.425 | 1.254 | 1.11
x1 = 0.2958 | 769.22 | 764.52 | 759.73 | 1156 | 1135 | 1114 | 1.172 | 1.038 | 0.925
x1 = 0.3877 | 764.63 | 759.81 | 754.9 | 1158 | 1136 | 1114 | 0.954 | 0.856 | 0.77
x1 = 0.4823 | 760.38 | 755.45 | 750.44 | 1162 | 1139 | 1116 | 0.799 | 0.724 | 0.658
x1 = 0.5974 | 755.59 | 750.58 | 745.49 | 1168 | 1145 | 1121 | 0.641 | 0.588 | 0.542
x1 = 0.7206 | 750.97 | 745.92 | 740.79 | 1179 | 1154 | 1130 | 0.535 | 0.499 | 0.466
x1 = 0.8136 | 747.96 | 742.89 | 737.76 | 1190 | 1165 | 1140 | 0.484 | 0.454 | 0.427
x1 = 0.9219 | 745.39 | 740.33 | 735.2 | 1208 | 1183 | 1157 | 0.449 | 0.424 | 0.401
x1 = 0.9533 | 744.87 | 739.86 | 734.72 | 1215 | 1189 | 1164 | 0.443 | 0.419 | 0.398
x1 = 1 | 744.52 | 739.55 | 734.54 | 1232 | 1206 | 1180 | 0.438 | 0.416 | 0.394

C1CCCC1 [cyclopentane] + CCC(C)O
101 kPa
Details | mass density, 293.15 K [kg/m3] | mass density, 298.15 K [kg/m3] | mass density, 303.15 K [kg/m3] | speed of sound, 293.15 K [m/s] | speed of sound, 298.15 K [m/s] | speed of sound, 303.15 K [m/s] | viscosity, 293.15 K [mPa·s] | viscosity, 298.15 K [mPa·s] | viscosity, 303.15 K [mPa·s]
x1 = 0.0445 | 803.52 | 799.33 | 795.05 | 1225 | 1207 | 1188 | 3.152 | 2.621 | 2.194
x1 = 0.1036 | 799.5 | 795.2 | 790.81 | 1219 | 1200 | 1181 | 2.649 | 2.231 | 1.898
x1 = 0.1872 | 793.75 | 789.32 | 784.79 | 1212 | 1192 | 1172 | 2.121 | 1.811 | 1.56
x1 = 0.2856 | 787.01 | 782.42 | 777.74 | 1204 | 1183 | 1162 | 1.604 | 1.393 | 1.219
x1 = 0.3938 | 779.61 | 774.87 | 770.05 | 1197 | 1175 | 1153 | 1.194 | 1.054 | 0.94
x1 = 0.4873 | 773.26 | 768.43 | 763.52 | 1193 | 1170 | 1148 | 0.946 | 0.85 | 0.77
x1 = 0.6179 | 764.92 | 760.01 | 755.02 | 1191 | 1167 | 1144 | 0.692 | 0.636 | 0.588
x1 = 0.7034 | 759.79 | 754.84 | 749.82 | 1193 | 1169 | 1145 | 0.61 | 0.569 | 0.531
x1 = 0.8115 | 753.71 | 748.71 | 743.64 | 1200 | 1175 | 1151 | 0.517 | 0.485 | 0.455
x1 = 0.9113 | 748.61 | 743.57 | 738.46 | 1211 | 1186 | 1161 | 0.468 | 0.441 | 0.416
x1 = 0.9506 | 746.74 | 741.7 | 736.6 | 1218 | 1192 | 1167 | 0.451 | 0.426 | 0.403
x1 = 1 | 744.52 | 739.55 | 734.54 | 1232 | 1206 | 1180 | 0.438 | 0.416 | 0.394
